The text below walks through data of patent US20260297081A1, “COMPOUNDS AND METHODS OF TREATING CANCERS” (Cullgen Inc., priority 2023, published 2026).

Assay [1] has as its system MCF7 cells. Briefly: Anti-proliferation (viability) of MCF7 cells (Table 7, FIG. 2B). Format: cell-based. Particulars: Homo sapiens, MCF7, MCF7 cells, 3-6 days, 10-point serial dilution; read-out: GI IC50 in MCF-7.
Assay [2] addresses CDK4 (Homo sapiens, UniProt P11802+Q16531). The assay can be described thus: CDK4 percentage degradation in Calu-1 cells (Table 6). Format: cell-based. Further details: Cells that express cyclin D1-3 and CDK4/6 proteins were treated with heterobifunctional compounds; endogenous in cells; host or cells: Calu-1. Particulars: 16 hours; for inhibition at 0.04 µM: 40 nM; for inhibition at 0.2 µM: 200 nM. In a few lines:
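Percentage degradation of Cyclin D1 and CDK4 derived from densitometry of ECL Western blots on lysates of Calu-1 cells. Treatment was 16 h with compound at either 40 nM or 200 nM.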

As a reminder, the IC50 is the concentration at which inhibition is half-maximal. For orientation: inhibition means the percentage by which the read-out fell short of the control. Low readings indicate little suppression, high ones strong suppression.

Chain of CDK4 (P11802 2-303 limits assumed): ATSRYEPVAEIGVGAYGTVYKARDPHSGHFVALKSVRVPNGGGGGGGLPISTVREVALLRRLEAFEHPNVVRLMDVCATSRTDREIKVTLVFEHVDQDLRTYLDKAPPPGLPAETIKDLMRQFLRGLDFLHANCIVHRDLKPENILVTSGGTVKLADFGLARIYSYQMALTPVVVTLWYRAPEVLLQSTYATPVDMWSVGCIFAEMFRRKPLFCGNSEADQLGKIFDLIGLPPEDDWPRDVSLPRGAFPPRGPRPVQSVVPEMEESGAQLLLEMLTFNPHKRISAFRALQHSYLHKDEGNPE
Chain of CDK4 (P24385 whole entry partner): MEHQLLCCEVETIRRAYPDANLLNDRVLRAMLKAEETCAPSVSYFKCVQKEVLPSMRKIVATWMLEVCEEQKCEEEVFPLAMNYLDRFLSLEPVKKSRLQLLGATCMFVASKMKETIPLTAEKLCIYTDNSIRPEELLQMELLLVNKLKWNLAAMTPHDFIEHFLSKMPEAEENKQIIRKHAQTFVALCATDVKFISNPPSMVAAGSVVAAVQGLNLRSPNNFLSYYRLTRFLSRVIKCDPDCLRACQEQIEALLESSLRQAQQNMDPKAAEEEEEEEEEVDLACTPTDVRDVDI
Chain of CDK4 (Q16531 2-1140 limits assumed): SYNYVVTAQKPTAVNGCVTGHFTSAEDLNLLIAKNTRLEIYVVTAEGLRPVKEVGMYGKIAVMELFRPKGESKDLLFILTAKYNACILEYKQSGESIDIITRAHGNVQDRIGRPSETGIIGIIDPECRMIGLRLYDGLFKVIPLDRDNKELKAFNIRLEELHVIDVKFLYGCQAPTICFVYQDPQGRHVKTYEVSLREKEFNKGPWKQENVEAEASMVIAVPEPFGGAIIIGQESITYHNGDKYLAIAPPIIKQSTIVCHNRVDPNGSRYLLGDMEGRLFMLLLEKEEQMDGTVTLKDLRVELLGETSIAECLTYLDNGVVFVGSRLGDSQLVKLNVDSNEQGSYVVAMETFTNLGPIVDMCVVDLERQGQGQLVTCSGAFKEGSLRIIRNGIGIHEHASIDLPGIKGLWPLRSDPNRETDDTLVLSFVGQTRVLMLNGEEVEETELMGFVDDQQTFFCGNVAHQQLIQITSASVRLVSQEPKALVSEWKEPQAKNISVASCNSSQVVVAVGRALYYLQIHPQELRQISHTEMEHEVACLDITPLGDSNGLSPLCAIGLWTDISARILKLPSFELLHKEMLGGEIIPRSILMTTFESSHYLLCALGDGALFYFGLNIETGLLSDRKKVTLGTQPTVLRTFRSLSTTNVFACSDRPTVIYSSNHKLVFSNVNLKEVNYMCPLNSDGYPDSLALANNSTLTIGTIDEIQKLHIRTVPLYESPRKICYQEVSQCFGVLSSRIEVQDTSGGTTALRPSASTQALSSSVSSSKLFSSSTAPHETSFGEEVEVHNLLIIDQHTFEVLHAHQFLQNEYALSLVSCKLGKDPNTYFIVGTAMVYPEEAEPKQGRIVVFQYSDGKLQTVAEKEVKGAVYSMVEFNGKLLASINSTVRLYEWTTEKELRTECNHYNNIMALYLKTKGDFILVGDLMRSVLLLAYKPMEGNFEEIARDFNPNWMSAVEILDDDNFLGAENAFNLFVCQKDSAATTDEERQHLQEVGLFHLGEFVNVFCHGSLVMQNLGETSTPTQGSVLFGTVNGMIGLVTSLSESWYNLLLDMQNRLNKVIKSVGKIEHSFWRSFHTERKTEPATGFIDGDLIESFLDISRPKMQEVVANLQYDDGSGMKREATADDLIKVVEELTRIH

In the case of `CC(=O)c1c(C)c2cnc(Nc3ccc(N4CCN(CCC(=O)N5CC6(CC(Nc7nc(NC(C)C)ccc7C(=O)Nc7cn(C)c(C8CC8)n7)C6)C5)CC4)cn3)nc2n(C2CCCC2)c1=O` [CPD-323, 2-((2-(3-(4-(6-((6-acetyl-8-cyclopentyl-5-methyl-7-oxo-7,8-dihydropyrido[2,3-d]pyrimidin-2-yl)amino)pyridin-3-yl)piperazin-1-yl)propanoyl)-2-azaspiro[3.3]heptan-6-yl)amino)-N-(2-cyclopropyl-1-methyl-1H-imidazol-4-yl)-6-(isopropylamino)nicotinamide], in assay [1], the half-maximal inhibitory concentration (IC50) is below 50 nM. In assay [2], the inhibition at 0.04 µM is below 30% and the inhibition at 0.2 µM was below 30%.
With `CNc1ccc(C(=O)Nc2ccc(N(C)C)nn2)c(NC2CC3(C2)CN(C(=O)C2CC24CCN(c2ccc(Nc5ncc6c(C)c(C(C)=O)c(=O)n(C7CCCC7)c6n5)nc2)CC4)C3)n1` (stereo not drawn) [CPD-324, 2-((2-(6-(6-((6-acetyl-8-cyclopentyl-5-methyl-7-oxo-7,8-dihydropyrido[2,3-d]pyrimidin-2-yl)amino)pyridin-3-yl)-6-azaspiro[2.5]octane-1-carbonyl)-2-azaspiro[3.3]heptan-6-yl)amino)-N-(6-(dimethylamino)pyridazin-3-yl)-6-(methylamino)nicotinamide], the IC50 in assay [1] is below 50 nM. Besides, in assay [2], the inhibition at 0.04 µM was below 30% and the inhibition at 0.2 µM is below 30%.
Take `CC(=O)c1c(C)c2cnc(Nc3ccc(N4CCN(C(C)C(=O)NC5CC(Nc6nc(NC(C)C)ccc6C(=O)Nc6ccc(N(C)C)nn6)C5)CC4)cn3)nc2n(C2CCCC2)c1=O` (stereo not drawn) [CPD-326, 2-((3-(2-(4-(6-((6-acetyl-8-cyclopentyl-5-methyl-7-oxo-7,8-dihydropyrido[2,3-d]pyrimidin-2-yl)amino)pyridin-3-yl)piperazin-1-yl)propanamido)cyclobutyl)amino)-N-(6-(dimethylamino)pyridazin-3-yl)-6-(isopropylamino)nicotinamide]: the IC50 in assay [1] fell in the range of 50 to 100 nM. Also, in assay [2], the inhibition at 0.04 µM is below 30% and the inhibition at 0.2 µM was below 30%.
Take `CNc1ccc(C(=O)Nc2ccc(N(C)C)nn2)c(NC2CCN(C(=O)C3CC34CCN(c3ccc(Nc5ncc6c(C)c(C(C)=O)c(=O)n(C7CCCC7)c6n5)nc3)CC4)CC2)n1` (stereo not drawn) [CPD-328, 2-((1-(6-(6-((6-acetyl-8-cyclopentyl-5-methyl-7-oxo-7,8-dihydropyrido[2,3-d]pyrimidin-2-yl)amino)pyridin-3-yl)-6-azaspiro[2.5]octane-1-carbonyl)piperidin-4-yl)amino)-N-(6-(dimethylamino)pyridazin-3-yl)-6-(methylamino)nicotinamide]: the IC50 in assay [1] is below 50 nM. In assay [2], this molecule yielded an inhibition at 0.04 µM below 30% and an inhibition at 0.2 µM below 30%.
Consider `CNc1ccc(C(=O)Nc2ccc(N(C)C)nn2)c(NC2CC(C(=O)N3CCC(N4CCN(c5ccc(Nc6ncc7c(C)c(C(C)=O)c(=O)n(C8CCCC8)c7n6)nc5)CC4)C3)C2)n1` (stereo not drawn) [CPD-333, 2-((3-(3-(4-(6-((6-acetyl-8-cyclopentyl-5-methyl-7-oxo-7,8-dihydropyrido[2,3-d]pyrimidin-2-yl)amino)pyridin-3-yl)piperazin-1-yl)pyrrolidine-1-carbonyl)cyclobutyl)amino)-N-(6-(dimethylamino)pyridazin-3-yl)-6-(methylamino)nicotinamide], for which the IC50 in assay [1] was below 50 nM. In assay [2], this molecule registered an inhibition at 0.04 µM below 30% and an inhibition at 0.2 µM below 30%.
For the molecule `[2H]C([2H])([2H])Nc1ccc(C(=O)Nc2ccc(N(C)C)nn2)c(NC2CC3(C2)CN(C(=O)CC(C)N2CCN(c4ccc(Nc5ncc6c(C)c(C(C)=O)c(=O)n(C7CCCC7)c6n5)nc4)CC2)C3)n1` (stereo not drawn) [CPD-341, 2-((2-(3-(4-(6-((6-acetyl-8-cyclopentyl-5-methyl-7-oxo-7,8-dihydropyrido[2,3-d]pyrimidin-2-yl)amino)pyridin-3-yl)piperazin-1-yl)butanoyl)-2-azaspiro[3.3]heptan-6-yl)amino)-N-(6-(dimethylamino)pyridazin-3-yl)-6-((methyl-d3)amino)nicotinamide], in assay [1], the IC50 is below 50 nM. In addition, in assay [2], the inhibition at 0.04 µM is below 30% and the inhibition at 0.2 µM was below 30%.
Consider `[2H]C([2H])([2H])Nc1ccc(C(=O)Nc2ccc(N(C)C)nn2)c(NC2CC3(C2)CN(C(=O)CC(N2CCN(c4ccc(Nc5ncc6c(C)c(C(C)=O)c(=O)n(C7CCCC7)c6n5)nc4)CC2)C(F)(F)F)C3)n1` (stereo not drawn) [CPD-342, 2-((2-(3-(4-(6-((6-acetyl-8-cyclopentyl-5-methyl-7-oxo-7,8-dihydropyrido[2,3-d]pyrimidin-2-yl)amino)pyridin-3-yl)piperazin-1-yl)-4,4,4-trifluorobutanoyl)-2-azaspiro[3.3]heptan-6-yl)amino)-N-(6-(dimethylamino)pyridazin-3-yl)-6-((methyl-d3)amino)nicotinamide], for which, in assay [1], the IC50 was below 50 nM. In assay [2], this molecule showed an inhibition at 0.04 µM below 30% and an inhibition at 0.2 µM below 30%.
As for `CC(=O)c1c(C)c2cnc(Nc3ccc(CN4CCN(CC(=O)N5CCC(Nc6nc(NC(C)C)ccc6C(=O)Nc6ccc(N(C)C)nn6)CC5)CC4)cn3)nc2n(C2CCCC2)c1=O` [CPD-358, 2-((1-(2-(4-((6-((6-acetyl-8-cyclopentyl-5-methyl-7-oxo-7,8-dihydropyrido[2,3-d]pyrimidin-2-yl)amino)pyridin-3-yl)methyl)piperazin-1-yl)acetyl)piperidin-4-yl)amino)-N-(6-(dimethylamino)pyridazin-3-yl)-6-(isopropylamino)nicotinamide], in assay [1], the IC50 is 50 to 100 nM. In assay [2], this molecule registered an inhibition at 0.04 µM below 30% and an inhibition at 0.2 µM below 30%.
For the molecule `CC(=O)c1c(C)c2cnc(Nc3ccc(N4CCN(C(C)CC(=O)N5CCC(Nc6nc(NC(C)C)ccc6C(=O)Nc6ccc(N(C)C)nn6)CC5)CC4)cn3)nc2n(C2CCCC2)c1=O` (stereo not drawn) [CPD-359, 2-((1-(3-(4-(6-((6-acetyl-8-cyclopentyl-5-methyl-7-oxo-7,8-dihydropyrido[2,3-d]pyrimidin-2-yl)amino)pyridin-3-yl)piperazin-1-yl)butanoyl)piperidin-4-yl)amino)-N-(6-(dimethylamino)pyridazin-3-yl)-6-(isopropylamino)nicotinamide], the IC50 in assay [1] is below 50 nM. In assay [2], the inhibition at 0.04 µM was below 30% and the inhibition at 0.2 µM was below 30%.
Regarding `CC(=O)c1c(C)c2cnc(Nc3ccc(N4CCN(C(CC(=O)N5CC6(CC(Nc7nc(NC(C)C)ccc7C(=O)Nc7ccc(N(C)C)nn7)C6)C5)C(F)(F)F)CC4)cn3)nc2n(C2CCCC2)c1=O` (stereo not drawn) [CPD-367, 2-((2-(3-(4-(6-((6-acetyl-8-cyclopentyl-5-methyl-7-oxo-7,8-dihydropyrido[2,3-d]pyrimidin-2-yl)amino)pyridin-3-yl)piperazin-1-yl)-4,4,4-trifluorobutanoyl)-2-azaspiro[3.3]heptan-6-yl)amino)-N-(6-(dimethylamino)pyridazin-3-yl)-6-(isopropylamino)nicotinamide], in assay [1], the IC50 was below 50 nM. Moreover, in assay [2], the inhibition at 0.04 µM is below 30% and the inhibition at 0.2 µM was below 30%.
As for `CC(=O)c1c(C)c2cnc(Nc3ccc(N4CCN(C5CCN(C(=O)[C@H]6CC[C@H](Nc7nc(NC(C)C)ccc7C(=O)Nc7ccc(N(C)C)nn7)CC6)C5)CC4)cn3)nc2n(C2CCCC2)c1=O` (stereo partly drawn) [CPD-399, 2-((−4-(3-(4-(6-((6-acetyl-8-cyclopentyl-5-methyl-7-oxo-7,8-dihydropyrido[2,3-d]pyrimidin-2-yl)amino)pyridin-3-yl)piperazin-1-yl)pyrrolidine-1-carbonyl)cyclohexyl)amino)-N-(6-(dimethylamino)pyridazin-3-yl)-6-(isopropylamino)nicotinamide], the IC50 in assay [1] was below 50 nM. In assay [2], this molecule registered an inhibition at 0.04 µM below 30% and an inhibition at 0.2 µM below 30%.
On to `CC(=O)c1c(C)c2cnc(Nc3ccc(N4CCN(C5CCN(C(=O)C6CC(Nc7nc(NC(C)C)ccc7C(=O)Nc7ccc(N(C)C)nn7)C6)C5)CC4)cn3)nc2n(C2CCCC2)c1=O` (stereo not drawn) [CPD-402, 2-((3-(3-(4-(6-((6-acetyl-8-cyclopentyl-5-methyl-7-oxo-7,8-dihydropyrido[2,3-d]pyrimidin-2-yl)amino)pyridin-3-yl)piperazin-1-yl)pyrrolidine-1-carbonyl)cyclobutyl)amino)-N-(6-(dimethylamino)pyridazin-3-yl)-6-(isopropylamino)nicotinamide], for which, in assay [1], the IC50 lay within 50 to 100 nM. In assay [2], this molecule displayed an inhibition at 0.04 µM below 30% and an inhibition at 0.2 µM below 30%.
Consider `CC(=O)c1c(C)c2cnc(Nc3ccc(N4CCC5(CC4)CC5C(=O)N4CC5(CC(Nc6nc(NC(C)C)ccc6C(=O)Nc6ccc(N(C)C)nn6)C5)C4)cn3)nc2n(C2CCCC2)c1=O` (stereo not drawn) [CPD-411, 2-((2-(6-(6-((6-acetyl-8-cyclopentyl-5-methyl-7-oxo-7,8-dihydropyrido[2,3-d]pyrimidin-2-yl)amino)pyridin-3-yl)-6-azaspiro[2.5]octane-1-carbonyl)-2-azaspiro[3.3]heptan-6-yl)amino)-N-(6-(dimethylamino)pyridazin-3-yl)-6-(isopropylamino)nicotinamide], for which the IC50 in assay [1] was below 50 nM. Further, in assay [2], the inhibition at 0.04 µM was below 30% and the inhibition at 0.2 µM was below 30%.
